# PMC3161979, “MrkH, a Novel c-di-GMP-Dependent Transcriptional Activator, Controls Klebsiella pneumoniae Biofilm Formation by Regulating Type 3 Fimbriae Expression” (PLoS Pathogens, 2011)
# Biological target: T1, MrkH (MrkH-8×His) (Klebsiella pneumoniae, UniProt G3FT00)
# T1 construct: full length, 234 aa, C-terminal 8×His tag, expressed from pET11a in E. coli BL21(DE3), about 28 kDa
# Experiment: EMSA with […]-labelled mrkA promoter fragment
# Type: biochemical
# Conditions: 200 µM c-di-GMP; pH 7.4; 30°C; 0-500 nM protein; allosteric activator of DNA binding; indirect read-out, no direct c-di-GMP binding measured
# T1 sequence (G3FT00 entry or part of it): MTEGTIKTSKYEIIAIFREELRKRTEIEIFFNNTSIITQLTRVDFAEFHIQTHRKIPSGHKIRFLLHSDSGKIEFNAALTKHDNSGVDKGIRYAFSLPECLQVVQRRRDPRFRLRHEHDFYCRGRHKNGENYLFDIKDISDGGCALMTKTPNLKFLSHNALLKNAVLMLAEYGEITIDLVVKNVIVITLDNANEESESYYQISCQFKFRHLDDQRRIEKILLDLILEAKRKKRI
smiles,measurement,value
Nc1nc2c(ncn2[C@@H]2O[C@@H]3COP(=O)(O)O[C@H]4[C@@H](O)[C@H](n5cnc6c(=O)[nH]c(N)nc65)O[C@@H]4COP(=O)(O)O[C@H]3[C@H]2O)c(=O)[nH]1 [c-di-GMP],EMSA with 32P-labelled mrkA promoter fragment,"In the presence of c-di-GMP, the majority of the DNA was shifted"
